Assay results reported in ChEMBL document CHEMBL3714766, “Tetrahydroisoquinoline compounds and their use as pyruvate dehydrogenase kinase inhibitors” (2015).

The molecules below were run against Pyruvate dehydrogenase kinase (Homo sapiens, UniProt Q15119+Q15120+Q16654+Q15118) (assay: Binding affinity to pyruvate dehydrogenase kinase (unknown origin) by VER-00160364 probe based fluorescence polarization assay).

Row | IC50 | Structure (SMILES)
1 | 100 nM | O=C(c1ccc(O)cc1O)N1CCCc2cc(F)ccc21
2 | 10 nM | Cc1cnc(C)c(-c2ccc3c(c2)CCC(c2cccnc2)N3C(=O)c2ccc(O)cc2O)n1 (centres undefined)
3 | 1000 nM | COc1cnc(Cl)nc1-c1ccc2c(c1)CCC(c1cccnc1)N2C(=O)c1ccc(O)cc1O (centres undefined)
4 | 100 nM | CC1CCc2cc(C(=O)N(C)c3cccc(F)c3)ccc2N1C(=O)c1ccc(O)cc1O (centres undefined)
5 | 100 nM | CC1CCc2cc(C(=O)N(C)CC(F)(F)F)ccc2N1C(=O)c1cc(Cl)c(O)cc1O (centres undefined)
6 | 100 nM | COCCN(C)S(=O)(=O)c1cnc(-c2ccc3c(c2)CC[C@H](C)N3C(=O)c2ccc(O)cc2O)c(C)c1
7 | 100 nM | CC1CCc2cc(C(=O)N(C)Cc3nc4ccccc4n3C)ccc2N1C(=O)c1ccc(O)cc1O (centres undefined)
8 | 100 nM | CC1CCc2cc(F)ccc2N1C(=O)c1ccc(O)cc1O (centres undefined)
9 | 10 nM | Cc1cnc(Cl)nc1-c1ccc2c(c1)CC[C@H](C)C2C(=O)c1ccc(O)cc1O (some centres undefined)
10 | 10 nM | Cc1cc(S(=O)(=O)NCc2cccnc2)cnc1-c1ccc2c(c1)CC[C@H](C)N2C(=O)c1ccc(O)cc1O
11 | 10 nM | CC1CCc2cc(C(=O)N(C)Cc3ccc(Cl)cc3)ccc2N1C(=O)c1ccc(O)cc1O (centres undefined)
12 | 10000 nM | COc1ccc(CN(C)C(=O)c2ccc3c(c2)CC[C@@H](C)N3C(=O)c2ccc(O)cc2O)cc1
13 | 100 nM | C[C@H]1CCc2cc(C(=O)N(C)Cc3ccc(F)cc3)ccc2N1C(=O)c1ccc(O)cc1O
14 | 100 nM | CN(C)C(=O)c1ccc2c(c1)CCCN2C(=O)c1ccc(O)cc1O
15 | 1000 nM | CC1CCc2cc(Br)ccc2N1C(=O)c1ccc(O)cc1O (centres undefined)
16 | 10 nM | CC1CCc2cc(C(=O)N(C)Cc3ccc(F)cc3)ccc2N1C(=O)c1ccc(O)cc1O (centres undefined)
17 | 100 nM | CC1CCc2cc(C(=O)N3CCC3)ccc2N1C(=O)c1ccc(O)cc1O (centres undefined)
18 | 100 nM | CN(C(=O)c1ccc2c(c1)CCCN2C(=O)c1ccc(O)cc1O)c1cccc(F)c1
19 | 10000 nM | C[C@@H]1CCc2ccccc2N1C(=O)c1cc(Cl)c(O)cc1O
20 | 100 nM | Nc1ccc2c(c1)CCCN2C(=O)c1ccc(O)cc1O
21 | 100 nM | C[C@H]1CCc2cc(C(=O)N(C)Cc3cc4ccccc4[nH]3)ccc2N1C(=O)c1ccc(O)cc1O
22 | 10 nM | Cc1cc(S(=O)(=O)N2CCOCC2)cnc1-c1ccc2c(c1)CC[C@H](C)N2C(=O)c1ccc(O)cc1O
23 | 100 nM | CC1CCc2cc(C(=O)N(C)Cc3ccc(Cl)cc3)ccc2N1C(=O)c1cc(Cl)c(O)cc1O (centres undefined)
24 | 100 nM | C[C@H]1CCc2cc(C(=O)N(C)Cc3ccnc(Cl)c3)ccc2N1C(=O)c1ccc(O)cc1O

Row | IC50 | Structure (SMILES)
25 | 100 nM | CC1CCc2cc(C(=O)N(C)Cc3cccnc3)ccc2N1C(=O)c1ccc(O)cc1O (centres undefined)
26 | 10 nM | Cc1cc(S(=O)(=O)NCCCC(N)=O)cnc1-c1ccc2c(c1)CC[C@H](C)N2C(=O)c1ccc(O)cc1O
27 | 10000 nM | C[C@@H]1CCc2cc(F)ccc2N1C(=O)c1cc(Cl)c(O)cc1O
28 | 10 nM | Cc1cc(S(=O)(=O)N2CC(F)(F)C2)cnc1-c1ccc2c(c1)CC[C@H](C)N2C(=O)c1ccc(O)cc1O
29 | 10 nM | CC(=O)NCCNS(=O)(=O)c1cnc(-c2ccc3c(c2)CC[C@H](C)N3C(=O)c2ccc(O)cc2O)c(C)c1
30 | 100 nM | C[C@H]1CCc2cc(F)ccc2N1C(=O)c1ccc(O)cc1O
31 | 100 nM | C[C@H]1CCc2cc(C(=O)N(C)CC(F)(F)F)ccc2N1C(=O)c1ccc(O)cc1O
32 | 100 nM | C[C@H]1CCc2ccccc2N1C(=O)c1cc(F)c(O)cc1O
33 | 10 nM | Cc1cc(S(=O)(=O)N2CCOCC2)cnc1-c1ccc2c(c1)CCC(c1cccnc1)N2C(=O)c1ccc(O)cc1O (centres undefined)
34 | 10 nM | Cc1cc(S(=O)(=O)NCc2ccccn2)cnc1-c1ccc2c(c1)CC[C@H](C)N2C(=O)c1ccc(O)cc1O
35 | 10000 nM | CCc1cc(C(=O)N2c3ccc(F)cc3CCC2C)c(O)cc1O (centres undefined)
36 | 1000 nM | COC(=O)c1ccc2c(c1)CCCN2C(=O)c1ccc(O)cc1O
37 | 10000 nM | C[C@@H]1CCc2ccccc2N1C(=O)c1ccc(O)cc1O
38 | 100 nM | CN(Cc1nc2ccccc2[nH]1)C(=O)c1ccc2c(c1)CCCN2C(=O)c1ccc(O)cc1O
39 | 100 nM | CC1CCc2cc(C(=O)N(C)CCc3ccccn3)ccc2N1C(=O)c1ccc(O)cc1O (centres undefined)
40 | 100 nM | C[C@H]1CCc2cc(F)ccc2N1C(=O)c1cc(Cl)c(O)cc1O
41 | 1000 nM | O=C(c1ccc2c(c1)CCCN2C(=O)c1ccc(O)cc1O)N1CCC1
42 | 100 nM | COc1ccc2c(c1)CCCN2C(=O)c1ccc(O)cc1O
43 | 100 nM | CC(C)c1ccc2c(c1)CCCN2C(=O)c1ccc(O)cc1O
44 | 100 nM | CC1CCc2cc(F)ccc2N1C(=O)c1cc(Cl)c(O)cc1O (centres undefined)
45 | 1000 nM | O=C(c1ccc(O)cc1O)N1CCCc2cc(OC(F)(F)F)ccc21
46 | 100 nM | Cc1ccc2c(c1)CCCN2C(=O)c1ccc(O)cc1O
47 | 10000 nM | C[C@H]1CCc2cc(C(=O)O)ccc2N1C(=O)c1ccc(O)cc1O
48 | 1000 nM | CN(CCN)C(=O)c1ccc2c(c1)CCCN2C(=O)c1ccc(O)cc1O

Row | IC50 | Structure (SMILES)
49 | 100 nM | C[C@H]1CCc2cc(C(=O)N(C)Cc3ccc[n+](C)c3)ccc2N1C(=O)c1ccc(O)cc1O
50 | 100 nM | CC1CCc2cc(C(=O)N3Cc4ccccc4C3)ccc2N1C(=O)c1ccc(O)cc1O (centres undefined)
51 | 100 nM | COc1ccc(CN(C)C(=O)c2ccc3c(c2)CCC(C)N3C(=O)c2ccc(O)cc2O)cc1OC (centres undefined)
52 | 10 nM | Cc1cc(S(=O)(=O)N2CCN(C)CC2)cnc1-c1ccc2c(c1)CC[C@H](C)N2C(=O)c1ccc(O)cc1O
53 | 1000 nM | CCOC(=O)CN(C)C(=O)c1ccc2c(c1)CCCN2C(=O)c1ccc(O)cc1O
54 | 100 nM | CC(c1cc2ccccc2o1)N(C)C(=O)c1ccc2c(c1)CCC(C)N2C(=O)c1ccc(O)cc1O (centres undefined)
55 | 10 nM | COc1ccc(CN(C)C(=O)c2ccc3c(c2)CCC(C)N3C(=O)c2ccc(O)cc2O)cc1 (centres undefined)
56 | 10000 nM | O=C(c1ccc(O)cc1O)N1CCCc2cc(OCc3ccccc3)ccc21
57 | 100 nM | COc1ccccc1CN(C)C(=O)c1ccc2c(c1)CCC(C)N2C(=O)c1ccc(O)cc1O (centres undefined)
58 | 1000 nM | CN(CCNC(=O)OC(C)(C)C)C(=O)c1ccc2c(c1)CCCN2C(=O)c1ccc(O)cc1O
59 | 100 nM | CC1CCc2cc(C(=O)N(C)Cc3cc4ccccc4[nH]3)ccc2N1C(=O)c1ccc(O)cc1O (centres undefined)
60 | 10 nM | C[C@H]1CCc2cc(C(=O)N(C)Cc3ccnc4ccccc34)ccc2N1C(=O)c1ccc(O)cc1O
61 | 100 nM | C[C@H]1CCc2cc(C(=O)N(C)C)ccc2N1C(=O)c1ccc(O)cc1O
62 | 10000 nM | O=C(O)c1ccc2c(c1)CCCN2C(=O)c1ccc(O)cc1O
63 | 100 nM | C[C@H]1CCc2cc(C(=O)N(C)Cc3ccc(Cl)cc3)ccc2N1C(=O)c1ccc(O)cc1O
64 | 10 nM | Cc1cncnc1-c1ccc2c(c1)CCC(c1cccnc1)N2C(=O)c1ccc(O)cc1O (centres undefined)
65 | 1000 nM | CN(CC(F)(F)F)C(=O)c1ccc2c(c1)CCCN2C(=O)c1ccc(O)cc1O
66 | 10 nM | O=C(c1ccc(O)cc1O)N1c2ccc(-c3ncnc4[nH]ccc34)cc2CCC1c1cccnc1 (centres undefined)
67 | 10 nM | CC(=O)N1CCN(S(=O)(=O)c2cnc(-c3ccc4c(c3)CC[C@H](C)N4C(=O)c3ccc(O)cc3O)c(C)c2)CC1
68 | 100 nM | CC1CCc2cc(C(=O)N(C)Cc3ccc(Cl)c(Cl)c3)ccc2N1C(=O)c1ccc(O)cc1O (centres undefined)
69 | 10 nM | Cc1cnc(Cl)nc1-c1ccc2c(c1)CCC(c1cccnc1)N2C(=O)c1ccc(O)cc1O (centres undefined)
70 | 100 nM | CC1CCc2cc(C(=O)N(C)Cc3cnn(C)c3)ccc2N1C(=O)c1ccc(O)cc1O (centres undefined)
71 | 100 nM | O=C(c1ccc(O)cc1O)N1c2ccc(-c3nc4ccc(Cl)cc4cc3CO)cc2CCC1c1cccnc1 (centres undefined)
72 | 1000 nM | C[C@@H]1CCc2cc(F)ccc2N1C(=O)c1ccc(O)cc1O

Row | IC50 | Structure (SMILES)
73 | 100 nM | O=C(c1ccc2c(c1)CCCN2C(=O)c1ccc(O)cc1O)N1CCc2ccccc21
74 | 100 nM | CC1CCc2cc(C(=O)N(C)C)ccc2N1C(=O)c1ccc(O)cc1O (centres undefined)
75 | 100 nM | C[C@H]1CCc2cc(C(=O)N(C)Cc3cccnc3)ccc2N1C(=O)c1ccc(O)cc1O
76 | 100 nM | CC1CCc2cc(C(=O)N(C)CC(F)(F)F)ccc2N1C(=O)c1ccc(O)cc1O (centres undefined)
77 | 100 nM | CC1CCc2cc(C(=O)N(C)Cc3nc4ccccc4s3)ccc2N1C(=O)c1ccc(O)cc1O (centres undefined)
78 | 100 nM | Cc1cc(S(=O)(=O)N2CCC(F)(F)CC2)cnc1-c1ccc2c(c1)CC[C@H](C)N2C(=O)c1ccc(O)cc1O
79 | 100 nM | O=C(c1ccc2c(c1)CCCN2C(=O)c1ccc(O)cc1O)N1CCCCC1
80 | 100 nM | C[C@H]1CCc2ccccc2N1C(=O)c1ccc(O)cc1O
81 | 1000 nM | O=C(c1ccc(O)cc1O)N1CCCc2cc(Br)ccc21
82 | 100 nM | C[C@H]1CCc2ccccc2N1C(=O)c1cc(Cl)c(O)cc1O
83 | 100 nM | O=C(c1ccc(O)cc1O)N1c2ccccc2CC[C@@H]1c1cccnc1
84 | 10000 nM | C[C@@H]1CCc2cc(C(=O)N(C)C)ccc2N1C(=O)c1ccc(O)cc1O
85 | 100 nM | CC1CCc2cc(C(=O)N(C)Cc3nc4ccccc4[nH]3)ccc2N1C(=O)c1ccc(O)cc1O (centres undefined)
86 | 1000 nM | O=C(c1ccc2c(c1)CCCN2C(=O)c1ccc(O)cc1O)N1Cc2ccccc2C1
87 | 100 nM | CC1CCc2cc(C(=O)N3CCCCC3)ccc2N1C(=O)c1ccc(O)cc1O (centres undefined)
88 | 10 nM | CCc1nccnc1-c1ccc2c(c1)CCC(c1cccnc1)N2C(=O)c1ccc(O)cc1O (centres undefined)
89 | 1000 nM | CN(Cc1ccccn1)C(=O)c1ccc2c(c1)CCCN2C(=O)c1ccc(O)cc1O
90 | 100 nM | CC1CCc2cc(C(=O)N(C)Cc3cc4cc(F)ccc4[nH]3)ccc2N1C(=O)c1ccc(O)cc1O (centres undefined)
91 | 100 nM | CC1CCc2ccccc2N1C(=O)c1ccc(O)cc1O (centres undefined)
92 | 100 nM | C[C@H]1CCc2cc(C(=O)N(C)Cc3cccc4c3ccc[n+]4C)ccc2N1C(=O)c1ccc(O)cc1O
93 | 1000 nM | CN(CC(=O)O)C(=O)c1ccc2c(c1)CCCN2C(=O)c1ccc(O)cc1O
94 | 10 nM | Cc1cc2ccc(F)cc2nc1-c1ccc2c(c1)CCC(c1cccnc1)N2C(=O)c1ccc(O)cc1O (centres undefined)
